Measurements reported in US9707417B2, “Use of benzotropolone derivatives as UV absorbers and antioxidants and their use in sunscreens and/or cosmetic compositions” (BASF SE, priority 2008, dated 2017).
Entries after “also recorded” stand apart in the source; their conditions may differ.

What was measured:
[1] = UV shielding properties (UV spectra in ethanol); type: physicochemical; design: Absorption maximum 1 λmax / Absorption maximum 2 λmax: unit not given here; conditions: for Absorption maximum 1 A^1%1 cm / Absorption maximum 1 λmax / Absorption maximum 2 A^1%1 cm / Absorption maximum 2 λmax: UV spectra in ethanol
Excerpt: The UV shielding properties of the benzotropolone derivatives were investigated by measuring their UV spectra in ethanol.
In the following table the investigated absorption maxima (λmax) together with the corresponding A^1%1cm values are listed.

[2] = Measurement of photostability (irradiation of highly diluted solution of the UV-filter, analysis by UV-spectroscopy); type: physicochemical; conditions: for Half time: photostability, diluted solution in ethanol, first order kinetic model, half-life under conditions of COLIPA standard sun irradiation
Protocol: The method used for assessment of photostability is based on the irradiation of a highly diluted solution of the UV-filter.
The analysis after certain doses of irradiation is performed by UV-spectroscopy. The concentration of the UV-absorber in ethanol is adjusted to values between 1·10^−5 and 1·10^−6 mol/l, such that the absorbance of the solution in cuvette of 1 cm optical path length is ≦than 0.2. The mutual protection of filter molecules can be excluded under such conditions.
Prior to irradiation of a sample the UVB-intensity at the sample position is measured with a UV-radiometer (RM-12, Dr. Gröbel Electronic GmbH).
This radiometer is calibrated by comparison with a measurement of the spectral output of the metal halide lamp (including light guide and cut-off filter) using a wavelength-resolved radiometer (Gamma C11).
Therefore the relationship of the reading of the RM-12 radiometer and the corresponding spectral output of the lamp is known, and one is able to determine the wavelength-resolved intensities by measuring the UVB-intensity. By changing the distance between the end of the light guide and the cuvette, the UVB-intensity can be varied in the range of 100 μW/cm^2 and 4500 μW/cm^2.
For sample irradiation the highest possible intensity was used (4.5 mW/cm^2 UVB-intensity measured with the Macam 103 radiometer).
The irradiation time is varied from 0 to 180 min.
The dose the sample has received after 180 min corresponds to 60 MED.
During irradiation the sample was stirred. After certain intervals of irradiation, the samples were analyzed in a UV-spectrometer (Perkin Elmer, Lambda 16).
From the absorbance values at each dose of irradiation the concentration may be calculated using Lambert-Beer's law.
In order to get the half-life of the substance, a first order kinetic model was fitted to the experimental data. Since the UV-spectrum of the lamp and the UV-spectrum of the COLIPA standard sun are known, one can calculate the respective half-life of the UV-absorber under conditions of COLIPA standard sun irradiation [Bernd Herzog, Stefan Müller, Myriam Sohn, Uli Osterwalder, “New Insight and Prediction of Photostability of Sunscreens”, SÖFW Journal 133, 26-36 (2007)].

[3] = Solubility in water; type: physicochemical
[4] = DPPH assay (antioxidative / antiradical activity); type: biochemical; conditions: comparison with vitamin C, vitamin E, resveratrol
Excerpt: For tests of antioxidative activity, the DPPH assay is used. DPPH (2,2-Diphenyl-1-picryl-hydrazyl) is a stable radical, which absorbs in its radical form at 515 nm. Upon reduction by an antioxidant (AH), the absorption disappears: DPPH.+AH→DPPH—H+A. (1)
The rate of reaction (1) can be rather different for different antioxidants.
In the test, the ratio of the molar concentrations of the antioxidant and DPPH is varied (this ratio is named “EC”=efficient concentration), and the concentration of DPPH in the equilibrium state is measured for each ratio. […] The smaller the EC50 value, the more efficient is the antioxidant. Thus, the inverse, 1/EC50, can be used to quantify the antiradical power.
Solutions of DPPH and the antioxidants in ethanol are prepared separately and added together for starting the reaction (0.5 cm^3 of a 250 μM antioxidant solution is added to 2.5 cm^3 of a 100 μM DPPH solution). The absorption is measured using a Perkin Elmer Lambda 20 spectrophotometer.

Compound | Absorption maximum 1 A^1%1 cm [1] | Absorption maximum 1 λmax [1] | Absorption maximum 2 A^1%1 cm [1] | Absorption maximum 2 λmax [1] | photostability (in words) [2] | Half time [2] [h] | Solubility in water [3] [%] | shielding properties in the UV region (in words) [1] | antioxidant/radical scavenging power compared to state-of-the-art antioxidants (in words) [4]
O=c1c(O)cccc2cc(O)c(O)c(O)c12 [Compound B-1] | 935 | 281 | 1179 | 305 | high photostability | 31.5 | – | high shielding properties in the UV region; also recorded: high absorption in the UV-C and UV-B region | –
O=C(O)c1cc(O)c(=O)c2c(O)c(O)ccc2c1 [Compound B-2] | 966 | 276 | 460 | 400 | high photostability | 33.6 | – | high shielding properties in the UV region; also recorded: UV-C/UV-B shielding properties as well as UV-A shielding properties | –
COC(=O)c1cc(O)c(=O)c2c(O)c(O)ccc2c1 [Compound B-3] | 1007 | 277 | 516 | 395 | extraordinary high inherent photostability | 61.9 | – | high shielding properties in the UV region; also recorded: UV-C/UV-B shielding properties as well as UV-A shielding properties | –
COc1cc2cc(C(=O)O)cc(O)c(=O)c2c(O)c1O [Compound B-4] | 864 | 307 | 305 | 396 | high photostability | 16.6 | – | high shielding properties in the UV region; also recorded: UV-C/UV-B shielding properties as well as UV-A shielding properties | –
COC(=O)c1cc(O)c(=O)c2c(O)c(O)c(OC)cc2c1 [Compound B-5] | 1008 | 308 | 399 | 403 | extraordinary high inherent photostability | 116.5 | – | high shielding properties in the UV region; also recorded: UV-C/UV-B shielding properties as well as UV-A shielding properties | –

Now from value to molecule, other results behind:

Absorption maximum 1 A^1%1 cm [1] | Absorption maximum 1 λmax [1] | Absorption maximum 2 A^1%1 cm [1] | Absorption maximum 2 λmax [1] | photostability (in words) [2] | Half time [2] [h] | Solubility in water [3] [%] | Compound | shielding properties in the UV region (in words) [1] | antioxidant/radical scavenging power compared to state-of-the-art antioxidants (in words) [4]
573 | 310 | 208 | 404 | high photostability | 51.3 | 10.467 | COC(=O)c1cc(O)c(=O)c2c(O)c(O)c(OCCCO[C@@H]3O[C@H](CO)[C@@H](O)[C@H](O)[C@H]3O)cc2c1 [Compound B-13] | – | more effective in the DPPH assay than the state-of-the-art antioxidant resveratrol
726 | 308 | 236 | 397 | high photostability | 40.1 | – | O=C(O)CCCCCOc1cc2cc(C(=O)O)cc(O)c(=O)c2c(O)c1O [Compound B-19] | – | –
574 | 310 | 203 | 404 | high photostability | 16.6 | – | CCCCCCCC/C=C\CCCCCCCCOc1cc2cc(C(=O)OC)cc(O)c(=O)c2c(O)c1O [Compound B-32] | – | –
750 | 309 | 250 | 398 | high photostability | 22.8 | – | CCOC(=O)CCCCCOc1cc2cc(C(=O)O)cc(O)c(=O)c2c(O)c1O [Compound B-36] | – | –
